From patent US20250127725A1, “MAGNESIUM OXIDE TABLETS” (SETOLAS Holdings, Inc., priority 2021, published 2025) come the findings set out here.

SMILES strings stand for the structures.

Type in all cases: physicochemical
Common to all, as to settings: magnesium oxide raw material

Series [1] in a line: Average particle size of magnesium oxide, laser diffraction scattering, MT3300 EX2. The method, then: The average particle size and average particle diameter of the magnesium oxide particles of the present invention and magnesium hydroxide particles used as raw materials therefor can be measured according to laser diffraction scattering method with a commonly used instrument, such as a particle size analyzer (MT3300EX2 from Microtrac Bell Corporation).
(§1) The physical properties of the magnesium oxide used in these examples were measured, and the results were as follows. • Average particle size: 7.691 μm (measured according to laser diffraction scattering using a Microtrac Bell MT3300 EX2) • Bulk density: 0.249 g/mL (measured with 100 mL stainless steel cup (actual mass value (g)/100 (mL)) • Angle of repose: 41.7° (measured using MT-1 Multitester from Seishin Enterprise Co., Ltd.)

A short description of series [2]: Angle of repose, Multitester MT-1. The method, then:
The angle of repose of magnesium oxide particles to be used in the present invention may be set to an upper limit of 50° or less, or 48° or less, since an excessively large angle of repose may lead to a variation in the mass of the resulting tablets during tableting due to deteriorated flowability. On the other hand, the lower limit of the angle of repose is not specified because the lower the angle of repose, the better. The angle of repose can be measured, e.g., using Multitester MT-1 from Seishin Enterprise Co., Ltd.
as §1
After mixing, the following items were evaluated. • Bulk density: Measured with 100 mL stainless steel cup (actual mass value (g)/100 (mL) • Angle of repose: Measured using MT-1 Multitester from Seishin Enterprise Co., Ltd.

Series [3] can be described thus: Bulk density, 100 mL stainless steel cup. The protocol:
The bulk density of magnesium oxide particles to be used in the present invention may be set to an upper limit of 0.8 g/mL or less, or 0.7 g/mL or less, since too high a density may cause a decrease in hardness. On the other hand, since too low bulk density may cause capping and lamination, the lower limit may be 0.1 g/mL or more, or 0.2 g/mL or more. Bulk density can be measured, e.g., using a 100 mL stainless steel cup (actual mass value (g)/100 (mL)).
as §1
The weighed raw materials of magnesium oxide and internal additives were put into a polyethylene bag (1100 mm×600 mm) and mixed by shaking the bag 30 times from side to side. After the mixing, the bulk density was measured using a 100 mL stainless steel cup (actual mass value (g)/100 (mL)).
[formula] […]

In turn, `[O]=[Mg]` [Magnesium oxide] gave an Average particle size in series [1] of 7.691 μm. The Angle of repose in series [2] worked out at 41.7 °. Further, the Bulk density in series [3] turned out to be 0.249 g/mL.
